Results: patent US12590123B2, “Compounds and methods for treating cancer, viral infections, and allergic conditions” (Washington University, priority 2019, dated 2026)
Like-named read-outs stand apart in the source and are kept apart here.

Tests used:
Assay type in all cases: biochemical
[1] = molecular target: recombinant thrombin (Homo sapiens, UniProt P00734); assay: Chromogenic kinetic enzyme assay of thrombin (S2238)
Method: (§1) Using GraphPad Prism (GraphPad Software, San Diego, CA), a four-parameter curve fit was used to determine the inhibitor IC50s from a plot of the mean reaction velocity versus the inhibitor concentration. The IC50 values represent the average of three or more separate experimental determinations. Apparent Ki values were calculated from the IC50 values using the Cheng and Prusoff equation (Ki=IC50/(1+[S]/Km).
(§2) Using GraphPad Prism version 6.04 software program, (GraphPad Software, San Diego, CA, graphpad.com), a four parameter curve fit was used to determine the inhibitor IC50s from a plot of the mean reaction velocity versus the inhibitor concentration.
(§3) Fluorescent inhibitor and chromogenic proteolytic assays were performed for compounds prepared in Example 11 in general accordance with the procedures described in Example 9.

[2] = molecular target: Factor Xa (Homo sapiens, UniProt P00742); assay: Chromogenic kinetic enzyme assay of Factor Xa (S2222)
Chain of Factor Xa (P00742 235-488 limits assumed): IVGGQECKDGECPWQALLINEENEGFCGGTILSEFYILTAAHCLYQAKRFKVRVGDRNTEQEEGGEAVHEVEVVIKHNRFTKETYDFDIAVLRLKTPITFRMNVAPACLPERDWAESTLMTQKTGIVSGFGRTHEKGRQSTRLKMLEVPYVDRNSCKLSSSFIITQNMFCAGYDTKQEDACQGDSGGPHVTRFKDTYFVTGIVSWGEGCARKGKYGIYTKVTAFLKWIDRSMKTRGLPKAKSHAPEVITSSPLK
Chain of Factor Xa (P00742 41-179 partner limits assumed): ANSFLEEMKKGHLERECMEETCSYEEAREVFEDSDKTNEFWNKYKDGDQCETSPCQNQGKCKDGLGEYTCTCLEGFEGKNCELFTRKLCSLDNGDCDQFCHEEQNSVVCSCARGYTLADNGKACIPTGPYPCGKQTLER
Method: as §1, §2, §3

[3] = molecular target: T1, matriptase (Homo sapiens, UniProt Q9Y5Y6); assay: Fluorescent kinetic enzyme assay of matriptase activity (Boc-QAR-AMC)
T1 construct: purchased R&D Systems 3946-SE-010
T1 sequence (Q9Y5Y6 615-855 limits assumed): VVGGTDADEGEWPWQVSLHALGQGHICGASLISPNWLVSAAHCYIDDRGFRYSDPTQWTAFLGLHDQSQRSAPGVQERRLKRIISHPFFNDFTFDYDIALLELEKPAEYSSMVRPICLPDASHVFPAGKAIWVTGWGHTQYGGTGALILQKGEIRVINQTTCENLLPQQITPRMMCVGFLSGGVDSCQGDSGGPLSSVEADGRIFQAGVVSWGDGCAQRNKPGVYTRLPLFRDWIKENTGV

[4] = molecular target: T2, activated hepsin (Homo sapiens, UniProt P05981); assay: Fluorescent kinetic enzyme assay of hepsin activity (Boc-QAR-AMC)
T2 construct: purchased R&D Systems 4776-SE-010
T2 sequence (P05981 163-417 limits assumed): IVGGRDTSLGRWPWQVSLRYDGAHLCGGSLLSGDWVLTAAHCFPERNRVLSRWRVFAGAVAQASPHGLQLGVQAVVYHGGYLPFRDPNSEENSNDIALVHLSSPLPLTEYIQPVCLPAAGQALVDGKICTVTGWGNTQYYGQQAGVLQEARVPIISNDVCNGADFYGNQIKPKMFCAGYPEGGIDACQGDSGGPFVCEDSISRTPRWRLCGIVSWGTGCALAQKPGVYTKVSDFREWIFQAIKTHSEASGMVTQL
T2 sequence (P05981 1-162 partner limits assumed): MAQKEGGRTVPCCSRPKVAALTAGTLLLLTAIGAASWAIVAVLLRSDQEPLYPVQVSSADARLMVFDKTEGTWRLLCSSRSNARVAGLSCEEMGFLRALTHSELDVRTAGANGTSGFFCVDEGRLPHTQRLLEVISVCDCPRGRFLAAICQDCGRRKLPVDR

[5] = molecular target: T3, recombinant HGFA serine protease domain (Homo sapiens, UniProt Q04756); assay: Fluorescent kinetic enzyme assay of HGFA activity (Boc-QLR-AMC)
T3 construct: His6 tag (N); seven amino acid spacer plus TEV cleavage site (N); made in house; host or cells: High 5 insect cells (baculovirus; Sf9 for virus production)
T3 sequence (Q04756 373-655): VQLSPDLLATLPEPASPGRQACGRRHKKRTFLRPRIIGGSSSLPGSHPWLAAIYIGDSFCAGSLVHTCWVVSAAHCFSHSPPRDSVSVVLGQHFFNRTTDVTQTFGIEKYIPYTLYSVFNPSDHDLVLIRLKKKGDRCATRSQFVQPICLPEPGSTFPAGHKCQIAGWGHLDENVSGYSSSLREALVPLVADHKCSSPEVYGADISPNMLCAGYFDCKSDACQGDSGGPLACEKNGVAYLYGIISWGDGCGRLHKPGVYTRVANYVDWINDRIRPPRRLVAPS
Source text: The compounds prepared in Examples 1 to 8 were subjected to a series of inhibitions studies. The compounds were first tested in an HGFA enzymatic assay using the fluorogenic substrate Boc-QLR-AMC with a recombinant form of the HGFA serine protease domain.
This PCR product was cloned into the SfoI-HindIII sites of a modified pFastBac HT baculovirus expression vector (Addgene, Cambridge, MA). This vector contains a six amino His tag followed by a seven amino spacer and a seven amino acid TEV cleavage site placed immediately downstream of the honey bee melittin signal peptide. Using a modified Bac to Bac Expression System (Life Technologies, Carlsbad, CA), recombinant HGFA bacmids were obtained by transforming DH10Bac Escherichia coli cells. To obtain HGFA containing baculovirus, purified bacmids were transfected into Sf9 insect cells. After 5 days in culture at 27° C., media was harvested from transfected Sf9 cells. This media was used to prepare baculovirus infected insect cells (BIICs). These BIIICs were used to infect High 5 insect cells. Four days post infection, media was harvested, and recombinant protein was prepared as follows. Media was chilled to 4° C. and spun at 4000×g for 20 minutes (all subsequent steps were performed at 4° C. unless noted). Clarified media was passed first through a Whatman GF/B 1 um (#1821-047, GE Healthcare Life Sciences, Piscataway, NJ) and then a 0.22 μm PES membrane (#99955, TPP Techno Plastic Products AG, Trasadingen, Switzerland) and then concentrated using a Pall Centramate tangential flow system and Centramate T-series Cassette (#OS010T12, Pall Corporation, Port Washington, NY). Concentrated media was then buffer exchanged in two steps, five volumes of 50 mM Na-phosphate, 500 mM NaCl, pH 6.2, followed by five volumes of 50 mM Na-phosphate, 500 mM NaCl, pH 7.5. […] After mixing this slurry for 12 hours, nickel agarose beads were allowed to settle by gravity and then loaded into a column. Beads were washed with buffer (25 mM Na-phosphate, 500 mM NaCl, 25 mM imidazole, pH 8) and the bound protein eluted using (25 mM Na-phosphate, 500 mM NaCl, 250 mM imidazole, pH 8). Using a Amicon Ultra-4 Centrifugal filters (#UFC801008, Merck Millipore, Ltd., Tullagreen, Ireland), peak protein fractions were concentrated and run over a Superdex-200 10/300 GL column (GE Healthcare Life Sciences, Piscataway, NJ) in 10 mM Tris, 200 mM NaCl, 0.2 mM EDTA, pH 8. HGFA containing fractions were pooled, concentrated, made 50% glycerol, and stored at minus 20° C. Protein was quantitated using a modified Lowry protein assay (#500-0006, Bio-Rad Laboratories, Hercules, CA) and specific activity determined using Boc-QLR-AMC substrate.
Fluorescent kinetic enzyme assays of HGFA, matriptase, and hepsin activity: Compounds (0-20 μM final concentration in reaction) were diluted in DMSO (2% DMSO final concentration in reaction) and then mixed with either recombinant HGFA serine protease domain, matriptase (#3946-SE-010, R&D Systems, Minneapolis, Minnesota), or activated hepsin* (#4776-SE-010, R&D Systems, Minneapolis, Minnesota) in black 384 well plates (Corning #3575. Coming, NY). The final assay concentration for HGFA, matriptase, and hepsin, were 6.25 nM, 0.2 nM, and 0.3 nM, respectively in TNC buffer (25 mM Tris, 150 mM NaCl, 5 mM CaCl2, 0.01% Triton X-100, pH 8). After thirty minutes of incubation at room temperature, Boc-QLR-AMC substrate was added (HGFA assay) or Boc-QAR-AMC substrate (matriptase, and hepsin assays). Fluorescence (excitation at 380 nm and emission at 460 nm) was kinetically measured at room temperature over a 1 hour time period using a Biotek Synergy 2 plate reader (Winnoski, VT). From a plot of the mean reaction velocity versus the inhibitor concentration, a non-linear four parameter curve fit was performed using GraphPad Prism (GraphPad Software, San Diego, CA) to determine inhibitor IC50s. The IC50 values were determined from the average of three or more separate experimental determinations. […]

[6] = Table 2, chromogenic assay, read-out: Thrombin* (IC50 nM)
[7] = Table 2, chromogenic assay, read-out: Factor Xa* (IC50 nM)
[8] = Table 2, read-out: Matriptase (IC50 nM)
[9] = Table 2, read-out: Hepsin (IC50 nM)
[10] = Table 2, read-out: HGFA (IC50 nM)
[11] = Table 3, average of three experiments, read-out: Thrombin IC50
[12] = Example 12, read-out: IC50 for matriptase
[13] = Example 12, read-out: IC50 for hepsin

SMILES	IC50 [1, 6] [nM]	IC50 [2, 7] [nM]	IC50 [3, 8] [nM]	IC50 [4, 9] [nM]	IC50 [5, 10] [nM]	also measured
CC(=O)N[C@H]1CCCCn2cc(nn2)C[C@H](C(=O)N[C@H](CCCNC(=N)N)C(=O)c2nc3ccccc3s2)NC(=O)[C@H](CC(C)C)NC1=O [VD4118B]		9540	91.2	137	10900	
CC(=O)N[C@@H](CCC(N)=O)C(=O)N[C@@H](Cc1ccccc1)C(=O)NC(CCCNC(=N)N)C(=O)c1nc2ccccc2s1 (stereo partly drawn) [MM3144, Ac-QFR-kbt]	> 20000					
CC(=O)N[C@H]1Cc2ccc(cc2)OCCCC[C@@H](C(=O)N[C@@H](CCCNC(=N)N)C(=O)c2nc3ccccc3s2)NC(=O)[C@@H](Cc2c[nH]c3ccccc23)NC1=O [VD4162B]	14600	1110				
CSCCC[C@H](NC(C)=O)C(=O)N[C@@H](CCC(N)=O)C(=O)N[C@@H](Cc1ccccc1)C(=O)N[C@@H](CCCNC(=N)N)C(=O)c1nc2ccccc2s1 [MM3130, Ac-MQFR-kbt]	> 20000					
CC(=O)N1CCC(CCc2ccccc2)(OC(=O)N[C@@H](CC(C)C)C(=O)N[C@@H](CCCNC(=N)N)C(=O)c2nc3ccccc3s2)CC1 [Compound 8c, 1-acetyl-4-phenethylpiperidin-4-yl ((S)-1-(((S)-1-(benzo[d]thiazol-2-yl)-5-guanidino-1-oxopentan-2-yl)amino)-4-methyl-1-oxopentan-2-yl)carbamate]						IC50 [1, 11]: 7700 nM; IC50 ([2]; Table 3, average of three experiments, read-out: Factor Xa IC50): 2000 nM; IC50 [3, 12]: 70 nM; IC50 [4, 13]: 0.5 nM
CC(=O)N[C@H]1Cc2ccc(cc2)OC/C=C\CNC(=O)CC[C@@H](C(=O)N[C@@H](CCCNC(=N)N)C(=O)c2nc3ccccc3s2)NC(=O)[C@H](CC(C)C)NC1=O [VD4018, (11S,14S,17S,Z)-17-acetamido-N—((S)-1-(benzo[d]thiazol-2-yl)-5-guanidino-1-oxopentan-2-yl)-14-isobutyl-8,13,16-trioxo-2-oxa-7,12,15-triaza-1(1,4)-benzenacyclooctadecaphan-4-ene-11-carboxamide]		1240	9.84	6.31		
CC(C)C[C@H](NC(=O)OC1(Cc2ccccc2)CCNCC1)C(=O)N[C@@H](CCCNC(=N)N)C(=O)c1nc2ccccc2s1 [Compound 8b, 4-benzylpiperidin-4-yl((S)-1-(((S)-1-(benzo[d]thiazol-2-yl)-5-guanidino-1-oxopentan-2-yl)amino)-4-methyl-1-oxopentan-2-yl)carbamate]						IC50 [1, 11]: > 20000 nM; IC50 [3, 12]: 30 nM; IC50 ([5]; Table 3, average of three experiments, read-out: HGFA IC50): 1200 nM; IC50 [4, 13]: 0.6 nM

Now from value to molecule, other results behind:

IC50 [1, 6] [nM]	IC50 [2, 7] [nM]	IC50 [3, 8] [nM]	IC50 [4, 9] [nM]	IC50 [5, 10] [nM]	SMILES	also measured
7940	1360	41.3	136		CC(=O)N[C@H]1CC(=O)NCCCC[C@@H](C(=O)N[C@@H](CCCNC(=N)N)C(=O)c2nccs2)NC(=O)[C@H](CC(C)C)NC1=O [VD3076, (3S,6S,14S)-6-acetamido-N—((S)-5-guanidino-1-oxo-1-(thiazol-2-yl)pentan-2-yl)-3-isobutyl-2,5,8-trioxo-1,4,9-triazacyclotetradecane-14-carboxamide]	
> 20000		2.5	8.8	13700	CC(=O)N[C@H]1CC(=O)NCCCC[C@@H](C(=O)N[C@@H](CCCNC(=N)N)C(=O)c2nc3ccccc3s2)NC(=O)[C@H](C)NC1=O [VD3141, (3S,6S,14S)-6-acetamido-N—((S)-1-(benzo[d]thiazol-2-yl)-5-guanidino-1-oxopentan-2-yl)-3-methyl-2,5,8-trioxo-1,4,9-triazacyclotetradecane-14-carboxamide]	
	1550	0.86	0.46	11400	CC(C)C[C@@H]1NC(=O)[C@@H](N)CC(=O)NCCCC[C@@H](C(=O)N[C@@H](CCCNC(=N)N)C(=O)c2nc3ccccc3s2)NC1=O [VD2055, (3S,6S,14S)-6-amino-N—((S)-1-(benzo[d]thiazol-2-yl)-5-guanidino-1-oxopentan-2-yl)-3-isobutyl-2,5,8-trioxo-1,4,9-triazacyclotetradecane-14-carboxamide]	
	723	4.4	1.7	4470	CC(=O)N[C@H]1CCCCNC(=O)CC[C@@H](C(=O)N[C@@H](CCCNC(=N)N)C(=O)c2nc3ccccc3s2)NC(=O)[C@H](CC(C)C)NC1=O [VD2064, (2S,5S,14S)-14-acetamido-N—((S)-1-(benzo[d]thiazol-2-yl)-5-guanidino-1-oxopentan-2-yl)-2-isobutyl-3,8,15-trioxo-1,4,9-triazacyclopentadecane-5-carboxamide]	
	1930	19.5	117	15600	CC(=O)N[C@H]1CCCCn2cc(nn2)C[C@H](C(=O)N[C@@H](CCCNC(=N)N)C(=O)c2nc3ccccc3s2)NC(=O)[C@H](CC(C)C)NC1=O [VD4118]	
	1160	19.6	25.1		CC(=O)N[C@H]1CCCCNC(=O)C[C@@H](C(=O)N[C@@H](CCCNC(=N)N)C(=O)c2nc3ccccc3s2)NC(=O)[C@H](CC(C)C)NC1=O [VD2167, (2S,5S,13S)-13-acetamido-N—((S)-1-(benzo[d]thiazol-2-yl)-5-guanidino-1-oxopentan-2-yl)-2-isobutyl-3,7,14-trioxo-1,4,8-triazacyclotetradecane-5-carboxamide]	
